Measurements: patent publication US5776742A, “Aldehyde dehydrogenase enzyme” (Roche Vitamins Inc., priority 1996, dated 1998)
Several values for one entry are separate records, joined by “and”; a condition that tells them apart may be missing. Identical values can stand only once. Entries after “also recorded” stand apart in the source; their conditions may differ. Like-named read-outs stand apart in the source and are kept apart here.

Tests used:
[1] = target: T1, aldehyde dehydrogenase (ADH) (Ketogulonicigenium vulgare, UniProt F9Y7W8); experiment: Substrate specificity of the ADH; settings: for activity at 100000 µM: read-out: Relative activity (%)
T1 sequence (F9Y7W8 1-429): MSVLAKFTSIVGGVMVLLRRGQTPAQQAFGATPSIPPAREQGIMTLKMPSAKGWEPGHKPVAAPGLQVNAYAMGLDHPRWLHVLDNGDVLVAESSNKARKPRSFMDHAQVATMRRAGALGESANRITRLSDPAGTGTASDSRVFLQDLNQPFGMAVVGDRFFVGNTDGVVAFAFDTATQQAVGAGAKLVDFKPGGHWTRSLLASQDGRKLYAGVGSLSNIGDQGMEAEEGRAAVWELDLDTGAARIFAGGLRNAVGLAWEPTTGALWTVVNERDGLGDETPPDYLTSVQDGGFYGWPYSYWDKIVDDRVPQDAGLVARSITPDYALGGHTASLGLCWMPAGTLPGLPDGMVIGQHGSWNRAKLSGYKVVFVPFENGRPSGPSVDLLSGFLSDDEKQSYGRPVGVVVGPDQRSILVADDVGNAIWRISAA

[2] = target: T1, aldehyde dehydrogenase (ADH); experiment: Effects of metal ions, enzyme inhibitors and PQQ on the activity of ADH; type: biochemical, Gluconobacter oxydans DSM 4025 (FERM BP-3812); settings: for inhibition at 1870 µM: read-out: inhibition of the activity
[3] = target: T1, aldehyde dehydrogenase (ADH); experiment: Electron acceptor suitability for L-sorbosone oxidation; type: biochemical, Gluconobacter oxydans DSM 4025 (FERM BP-3812); settings: oxidation of L-sorbosone to 2-keto-L-gulonic acid
[4] = compound 0.950 mM, None = 100, read-out: Relative activity (%)
[5] = compound 1.870 mM, None = 100, read-out: Relative activity (%)
[6] = read-out: Relative activity (%)

## O=C(CO)[C@@H](O)[C@H](O)[C@H](O)CO [D-Fructose]
[1]
  activity at 100000 µM: 0%

## [Ca+2] [Ca^2+]
[2]
  effect on the enzyme activity (in words): Stimulator

## CCN1C(=O)C=CC1=O [N-Ethylmaleimide, reference compound]
[2]; 1.87 mM
  inhibition at 1870 µM: 24%
[2]; [4]
  activity at 950 µM: 94.1%
[2]; [5]
  activity at 1870 µM: 76.5%

## O.O.O.O.O.O.O.O=S(=O)([O-])[O-].[Zn+2] [ZnSO4.7H2 O]
[2]; metal 0.374 mM, None = 100
  Relative activity (%): 32.6%

## O.O.[Na+].[Na+].[O]=[Mo](=[O])([O-])[O-] [Na2 MoO4.2H2 O]
[2]; metal 0.19 mM, None = 100
  Relative activity (%): 69.7%
[2]; metal 0.374 mM, None = 100
  Relative activity (%): 42.1%

## O=O [oxygen]
[3]
  suitability as electron acceptor (in words): does not work; also recorded: not suitable

## O.O.O.O.O.O.O=S(=O)([O-])[O-].[Ni+2] [NiSO4.6H2 O]
[2]; metal 0.375 mM, None = 100
  Relative activity (%): 17.6%

## O=C(O)CN(CCN(CC(=O)O)CC(=O)O)CC(=O)O [EDTA, ethylenediamine tetraacetic acid, reference compound]
[2]
  effect on the enzyme activity (in words): strongly inhibited; also recorded: Inhibition
[2]; [6]
  activity at 194 µM: 3.8%
  activity at 480 µM: 2.6%
  activity at 980 µM: 1.6%

## [F-].[Na+] [Sodium fluoride, reference compound]
[2]
  Relative activity (%): 100% and 105.8%

## [Zn+2] [Zn^2+]
[2]
  effect on the enzyme activity (in words): inhibited; also recorded: Inhibition

## O=C[C@@H](O)[C@@H](O)[C@H](O)[C@H](O)CO [D-Mannose]
[1]
  activity at 100000 µM: 62.2%

## NC(=O)c1ccc[n+]([C@@H]2O[C@H](COP(=O)([O-])OP(=O)(O)OC[C@H]3O[C@@H](n4cnc5c(N)ncnc54)[C@H](OP(=O)(O)O)[C@@H]3O)[C@@H](O)[C@H]2O)c1 [nicotine amide adenine dinucleotide phosphate]
[3]
  suitability as electron acceptor (in words): not suitable

## [Ti+4] [Ti^4+]
[2]
  effect on the enzyme activity (in words): inhibited

## O.O.O.O.O=[N+]([O-])[O-].O=[N+]([O-])[O-].[Ca+2] [Ca(NO3)2.4H2 O]
[2]; metal 0.0387 mM, None = 100
  Relative activity (%): 294%
[2]; metal 0.19 mM, None = 100
  Relative activity (%): 450%

## O.O.O.O.O.O.O.O=[As]([O-])([O-])O.[Na+].[Na+] [Na2 HAsO4.7H2 O, reference compound]
[2]; compound 0.950 mM, None = 100
  Relative activity (%): 100%
[2]; compound 1.870 mM, None = 100
  Relative activity (%): 107.1%

## O=C[C@H](O)[C@H](O)[C@H](O)CO [D-Ribose]
[1]
  activity at 100000 µM: 33.3%

## O=C1C(Cl)=CC(=Nc2ccc(O)cc2)C=C1Cl
[3]
  suitability as electron acceptor (in words): oxidizes L-sorbosone to 2-keto-L-gulonic acid in the presence of electron acceptors

## OC[C@@H](O)[C@@H](O)[C@H](O)[C@@H](O)CO [D-Sorbitol]
[1]
  activity at 100000 µM: 0%

## O=CC(=O)[C@@H](O)[C@H](O)[C@H](O)CO [D-Glucosone]
[1]
  activity at 100000 µM: 77.8%

## [Ni+2] [Ni^2+]
[2]
  effect on the enzyme activity (in words): inhibited; also recorded: Inhibition

## [Cl][Ti]([Cl])([Cl])[Cl] [TiCl4]
[2]; metal 0.19 mM, None = 100
  Relative activity (%): 100%
[2]; metal 0.374 mM, None = 100
  Relative activity (%): 80%

## O.O.O.O.O.O.O.O=S(=O)([O-])[O-].[Mg+2] [MgSO4.7H2 O]
[2]; metal 0.19 mM, None = 100
  Relative activity (%): 79.3%
[2]; metal 0.374 mM, None = 100
  Relative activity (%): 39.9%

## [Cl-].[Cl-].[Zn+2] [ZnCl2]
[2]; metal 0.19 mM, None = 100
  Relative activity (%): 36.1%
[2]; metal 0.374 mM, None = 100
  Relative activity (%): 21.1%

## CC(C)O [iso-Propanol]
[1]
  activity at 100000 µM: 0%

## [Fe+3] [Fe^3+]
[2]
  effect on the enzyme activity (in words): inhibited

## C[n+]1c2ccccc2nc2ccccc21 [phenazine methosulfate]
[3]
  suitability as electron acceptor (in words): oxidizes L-sorbosone to 2-keto-L-gulonic acid in the presence of electron acceptors

## C=C[C@H]1C[N@@]2CC[C@H]1C[C@H]2[C@H](O)c1ccnc2ccc(OC)cc12 [Quinine, reference compound]
[2]; [4]
  activity at 950 µM: 118%
[2]; [5]
  activity at 1870 µM: 112%

## [Mg+2] [Mg^2+]
[2]
  effect on the enzyme activity (in words): inhibited

## O=CC(=O)[C@@H](O)[C@H](O)[C@@H](O)CO [L-Sorbosone]
[1]
  activity at 100000 µM: 100%

## O=C(O)CI [Monoiodoacetate, reference compound]
[2]; [6]
  activity at 950 µM: 93.7%
  activity at 1870 µM: 87.3%
[2]
  inhibition at 1870 µM: 13%

## O.O.O.O.O.O.[Cl][Cu][Cl] [CuCl2.6H2 O]
[2]; metal 0.0387 mM, None = 100
  Relative activity (%): 100%
[2]; metal 0.19 mM, None = 100
  Relative activity (%): 50%
[2]; metal 0.374 mM, None = 100
  Relative activity (%): 0%

## [Na+].[Na+].[O]=[Mo](=[O])([O-])[O-] [Mo^6+]
[2]
  effect on the enzyme activity (in words): inhibited

## O=CC(O)CO (racemic) [D,L-Glyceraldehyde]
[1]
  activity at 100000 µM: 789%
[1]; substrate vs L-sorbosone
  relative activity, times higher than that for L-sorbosone: about 8 times

## NC(=O)c1ccc[n+]([C@@H]2O[C@H](COP(=O)([O-])OP(=O)(O)OC[C@H]3O[C@@H](n4cnc5c(N)ncnc54)[C@H](O)[C@@H]3O)[C@@H](O)[C@H]2O)c1 [nicotine amide adenine dinucleotide]
[3]
  suitability as electron acceptor (in words): not suitable

## CCCO [n-Propanol]
[1]
  activity at 100000 µM: 0%

## [Ca+2].[Cl-].[Cl-] [CaCl2]
[2]; metal 0.0387 mM, None = 100
  Relative activity (%): 337%

## O=C[C@H](O)[C@@H](O)[C@H](O)[C@H](O)CO [D-Glucose]
[1]
  relative activity, times higher than that for L-sorbosone: ~2 times
  activity at 100000 µM: 189%

## O=C(O)CF [Sodium fluoroacetate, reference compound]
[2]; [4]
  activity at 950 µM: 118%
[2]; [5]
  activity at 1870 µM: 127%

## O.O.O.O.O.O.O.O=S(=O)([O-])[O-].[Cu+2] [CuSO4.7H2 O]
[2]; metal 0.19 mM, None = 100
  Relative activity (%): 100%
[2]; metal 0.374 mM, None = 100
  Relative activity (%): 61.9%

## O=C(CO)[C@@H](O)[C@H](O)[C@@H](O)CO [L-Sorbose]
[1]
  activity at 100000 µM: 0%

## cytochrome c
[3]
  suitability as electron acceptor (in words): oxidizes L-sorbosone to 2-keto-L-gulonic acid in the presence of electron acceptors

## [Cu+2] [Cu^2+]
[2]
  effect on the enzyme activity (in words): inhibited; also recorded: Inhibition

## O.O=S(=O)([O-])[O-].O=S(=O)([O-])[O-].O=S(=O)([O-])[O-].[Fe+3].[Fe+3] [Fe2 (SO4)3.nH2 O]
[2]; metal 0.0387 mM, None = 100
  Relative activity (%): 100%
[2]; metal 0.228 mM, None = 100
  Relative activity (%): 64.0%
[2]; metal 0.374 mM, None = 100
  Relative activity (%): 44.9%
[2]; metal 0.41 mM, None = 100
  Relative activity (%): 30.4%

## O=C(O)c1cc(C(=O)O)c2c(n1)C(=O)C(=O)c1cc(C(=O)O)[nH]c1-2 [PQQ, pyrroloquinoline quinone, reference compound]
[2]
  effect on the enzyme activity (in words): Stimulator
[2]; 0.01 mM, read-out: stimulation of the activity
  activation at 10 µM: ~50%
[2]; compound 0.01 mM, None = 100, read-out: Relative activity (%)
  activity at 10 µM: 148%
